In the supplement of paper PMC10307832:

Key:
Assay in all cases: relative viability (nuclei count vs DMSO), 5 days (fraction); higher = more cells survive
Axitinib + Vorinostat = compound: CNC(=O)c1ccccc1Sc1ccc2c(/C=C/c3ccccn3)n[nH]c2c1 [Axitinib] + O=C(CCCCCCC(=O)Nc1ccccc1)NO [Vorinostat] (partner 1 µM)
How it was run: (§1)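 Relative viability equals treated-well nuclei counts divided by vehicle-well nuclei counts. Counts came from 4× images of lung cancer cell lines grown in 1536-well plates for 5 days after pin-tool dosing on the day after seeding. Dosing used one drug alone or a fixed anchor-drug dose plus five library-drug doses (not always all listed) in √10 steps, and values are medians of duplicate plates.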

Axitinib + Linsitinib = compound: CNC(=O)c1ccccc1Sc1ccc2c(/C=C/c3ccccn3)n[nH]c2c1 [Axitinib] + C[C@]1(O)C[C@@H](c2nc(-c3ccc4ccc(-c5ccccc5)nc4c3)c3c(N)nccn32)C1 [Linsitinib] (partner 1 µM)
How it was run: as §1

Axitinib + Palbociclib = compound: CNC(=O)c1ccccc1Sc1ccc2c(/C=C/c3ccccn3)n[nH]c2c1 [Axitinib] + CC(=O)c1c(C)c2cnc(Nc3ccc(N4CCNCC4)cn3)nc2n(C2CCCC2)c1=O [Palbociclib] (partner 0.5 µM)
How it was run: as §1

Bemcentinib + Linsitinib = compound: Nc1nc(Nc2ccc3c(c2)CC[C@@H](N2CCCC2)CC3)nn1-c1cc2c(nn1)-c1ccccc1CCC2 [Bemcentinib] + C[C@]1(O)C[C@@H](c2nc(-c3ccc4ccc(-c5ccccc5)nc4c3)c3c(N)nccn32)C1 [Linsitinib] (partner 1 µM)
How it was run: as §1

NCI-H1734
relative viability (Axitinib + Vorinostat; first compound 0.005 µM): 0.787
relative viability (Axitinib + Vorinostat; first compound 0.01581 µM): 0.891
relative viability (Axitinib + Vorinostat; first compound 0.05 µM): 0.865
relative viability (Axitinib + Vorinostat; first compound 0.1581 µM): 0.903
relative viability (Axitinib + Vorinostat; first compound 0.5 µM): 0.964
relative viability (Axitinib + Linsitinib; first compound 0.005 µM): 1.05
relative viability (Axitinib + Linsitinib; first compound 0.01581 µM): 0.829
relative viability (Axitinib + Linsitinib; first compound 0.05 µM): 0.977
relative viability (Axitinib + Linsitinib; first compound 0.1581 µM): 0.903
relative viability (Axitinib + Linsitinib; first compound 0.5 µM): 1.04
relative viability (Axitinib + Palbociclib; first compound 0.005 µM): 0.35
relative viability (Axitinib + Palbociclib; first compound 0.01581 µM): 0.373
relative viability (Axitinib + Palbociclib; first compound 0.05 µM): 0.345
relative viability (Axitinib + Palbociclib; first compound 0.1581 µM): 0.334
relative viability (Axitinib + Palbociclib; first compound 0.5 µM): 0.425
relative viability (Bemcentinib + Linsitinib; first compound 0.04 µM): 0.856
relative viability (Bemcentinib + Linsitinib; first compound 0.1265 µM): 0.913
relative viability (Bemcentinib + Linsitinib; first compound 0.4 µM): 0.952
relative viability (Bemcentinib + Linsitinib; first compound 1.265 µM): 1.01
relative viability (Bemcentinib + Linsitinib; first compound 4 µM): 0.836

HARA
relative viability (Axitinib + Vorinostat; first compound 0.005 µM): 0.533
relative viability (Axitinib + Vorinostat; first compound 0.01581 µM): 0.559
relative viability (Axitinib + Vorinostat; first compound 0.05 µM): 0.526
relative viability (Axitinib + Vorinostat; first compound 0.5 µM): 0.655
relative viability (Axitinib + Linsitinib; first compound 0.005 µM): 1.06
relative viability (Axitinib + Linsitinib; first compound 0.01581 µM): 0.972
relative viability (Axitinib + Linsitinib; first compound 0.05 µM): 1.09
relative viability (Axitinib + Linsitinib; first compound 0.1581 µM): 0.914
relative viability (Axitinib + Linsitinib; first compound 0.5 µM): 1.05
relative viability (Axitinib + Palbociclib; first compound 0.005 µM): 0.241
relative viability (Axitinib + Palbociclib; first compound 0.01581 µM): 0.334
relative viability (Axitinib + Palbociclib; first compound 0.05 µM): 0.216
relative viability (Axitinib + Palbociclib; first compound 0.1581 µM): 0.221
relative viability (Axitinib + Palbociclib; first compound 0.5 µM): 0.247
relative viability (Bemcentinib + Linsitinib; first compound 0.04 µM): 1.01
relative viability (Bemcentinib + Linsitinib; first compound 0.1265 µM): 1.07
relative viability (Bemcentinib + Linsitinib; first compound 0.4 µM): 1.01
relative viability (Bemcentinib + Linsitinib; first compound 1.265 µM): 0.994
relative viability (Bemcentinib + Linsitinib; first compound 4 µM): 1.05

NCI-H2228
relative viability (Axitinib + Vorinostat; first compound 0.005 µM): 0.818
relative viability (Axitinib + Vorinostat; first compound 0.01581 µM): 0.618
relative viability (Axitinib + Vorinostat; first compound 0.05 µM): 0.605
relative viability (Axitinib + Vorinostat; first compound 0.1581 µM): 0.506
relative viability (Axitinib + Vorinostat; first compound 0.5 µM): 0.885
relative viability (Axitinib + Linsitinib; first compound 0.005 µM): 0.674
relative viability (Axitinib + Linsitinib; first compound 0.01581 µM): 0.625
relative viability (Axitinib + Linsitinib; first compound 0.05 µM): 0.633
relative viability (Axitinib + Linsitinib; first compound 0.1581 µM): 0.735
relative viability (Axitinib + Linsitinib; first compound 0.5 µM): 0.58
relative viability (Axitinib + Palbociclib; first compound 0.005 µM): 0.926
relative viability (Axitinib + Palbociclib; first compound 0.01581 µM): 0.664
relative viability (Axitinib + Palbociclib; first compound 0.05 µM): 0.615
relative viability (Axitinib + Palbociclib; first compound 0.1581 µM): 0.614
relative viability (Axitinib + Palbociclib; first compound 0.5 µM): 0.882
relative viability (Bemcentinib + Linsitinib; first compound 0.1265 µM): 0.627
relative viability (Bemcentinib + Linsitinib; first compound 0.4 µM): 0.733
relative viability (Bemcentinib + Linsitinib; first compound 1.265 µM): 0.585
relative viability (Bemcentinib + Linsitinib; first compound 4 µM): 1.11

HCC-827
relative viability (Axitinib + Vorinostat; first compound 0.005 µM): 0.809
relative viability (Axitinib + Vorinostat; first compound 0.01581 µM): 0.505
relative viability (Axitinib + Vorinostat; first compound 0.05 µM): 0.863
relative viability (Axitinib + Vorinostat; first compound 0.1581 µM): 0.746
relative viability (Axitinib + Vorinostat; first compound 0.5 µM): 0.925
relative viability (Axitinib + Linsitinib; first compound 0.005 µM): 0.927
relative viability (Axitinib + Linsitinib; first compound 0.01581 µM): 0.907
relative viability (Axitinib + Linsitinib; first compound 0.05 µM): 0.963
relative viability (Axitinib + Linsitinib; first compound 0.1581 µM): 0.977
relative viability (Axitinib + Linsitinib; first compound 0.5 µM): 0.999
relative viability (Axitinib + Palbociclib; first compound 0.005 µM): 0.511
relative viability (Axitinib + Palbociclib; first compound 0.01581 µM): 0.501
relative viability (Axitinib + Palbociclib; first compound 0.05 µM): 0.475
relative viability (Axitinib + Palbociclib; first compound 0.1581 µM): 0.491
relative viability (Axitinib + Palbociclib; first compound 0.5 µM): 0.546
relative viability (Bemcentinib + Linsitinib; first compound 0.04 µM): 0.952
relative viability (Bemcentinib + Linsitinib; first compound 0.1265 µM): 0.992
relative viability (Bemcentinib + Linsitinib; first compound 0.4 µM): 0.936
relative viability (Bemcentinib + Linsitinib; first compound 1.265 µM): 0.947
relative viability (Bemcentinib + Linsitinib; first compound 4 µM): 0.988

EPLC-272H
relative viability (Axitinib + Vorinostat; first compound 0.005 µM): 0.341
relative viability (Axitinib + Vorinostat; first compound 0.01581 µM): 0.359
relative viability (Axitinib + Vorinostat; first compound 0.05 µM): 0.498
relative viability (Axitinib + Vorinostat; first compound 0.1581 µM): 0.481
relative viability (Axitinib + Vorinostat; first compound 0.5 µM): 0.459
relative viability (Axitinib + Linsitinib; first compound 0.005 µM): 1.33
relative viability (Axitinib + Linsitinib; first compound 0.01581 µM): 1.1
relative viability (Axitinib + Linsitinib; first compound 0.05 µM): 1.32
relative viability (Axitinib + Linsitinib; first compound 0.1581 µM): 1.12
relative viability (Axitinib + Linsitinib; first compound 0.5 µM): 1.07
relative viability (Axitinib + Palbociclib; first compound 0.005 µM): 0.294
relative viability (Axitinib + Palbociclib; first compound 0.01581 µM): 0.369
relative viability (Axitinib + Palbociclib; first compound 0.05 µM): 0.336
relative viability (Axitinib + Palbociclib; first compound 0.1581 µM): 0.354
relative viability (Axitinib + Palbociclib; first compound 0.5 µM): 0.309
relative viability (Bemcentinib + Linsitinib; first compound 0.1265 µM): 1.08
relative viability (Bemcentinib + Linsitinib; first compound 0.4 µM): 1.28
relative viability (Bemcentinib + Linsitinib; first compound 1.265 µM): 1.16
relative viability (Bemcentinib + Linsitinib; first compound 4 µM): 1.19

SW 1573
relative viability (Axitinib + Vorinostat; first compound 0.005 µM): 0.735
relative viability (Axitinib + Vorinostat; first compound 0.01581 µM): 0.789
relative viability (Axitinib + Vorinostat; first compound 0.05 µM): 0.985
relative viability (Axitinib + Vorinostat; first compound 0.1581 µM): 0.741
relative viability (Axitinib + Vorinostat; first compound 0.5 µM): 0.783
relative viability (Axitinib + Linsitinib; first compound 0.005 µM): 0.911
relative viability (Axitinib + Linsitinib; first compound 0.01581 µM): 0.855
relative viability (Axitinib + Linsitinib; first compound 0.05 µM): 0.899
relative viability (Axitinib + Linsitinib; first compound 0.1581 µM): 0.8
relative viability (Axitinib + Linsitinib; first compound 0.5 µM): 0.84
relative viability (Axitinib + Palbociclib; first compound 0.005 µM): 0.36
relative viability (Axitinib + Palbociclib; first compound 0.01581 µM): 0.448
relative viability (Axitinib + Palbociclib; first compound 0.05 µM): 0.395
relative viability (Axitinib + Palbociclib; first compound 0.1581 µM): 0.384
relative viability (Axitinib + Palbociclib; first compound 0.5 µM): 0.473
relative viability (Bemcentinib + Linsitinib; first compound 0.04 µM): 0.884
relative viability (Bemcentinib + Linsitinib; first compound 0.1265 µM): 0.753
relative viability (Bemcentinib + Linsitinib; first compound 0.4 µM): 0.855
relative viability (Bemcentinib + Linsitinib; first compound 1.265 µM): 0.966
relative viability (Bemcentinib + Linsitinib; first compound 4 µM): 0.835

LXF-289
relative viability (Axitinib + Vorinostat; first compound 0.005 µM): 0.777
relative viability (Axitinib + Vorinostat; first compound 0.01581 µM): 0.74
relative viability (Axitinib + Vorinostat; first compound 0.05 µM): 0.791
relative viability (Axitinib + Vorinostat; first compound 0.1581 µM): 0.716
relative viability (Axitinib + Vorinostat; first compound 0.5 µM): 0.732
relative viability (Axitinib + Linsitinib; first compound 0.005 µM): 0.991
relative viability (Axitinib + Linsitinib; first compound 0.01581 µM): 0.952
relative viability (Axitinib + Linsitinib; first compound 0.05 µM): 0.972
relative viability (Axitinib + Linsitinib; first compound 0.1581 µM): 0.962
relative viability (Axitinib + Linsitinib; first compound 0.5 µM): 0.968
relative viability (Axitinib + Palbociclib; first compound 0.005 µM): 0.597
relative viability (Axitinib + Palbociclib; first compound 0.01581 µM): 0.539
relative viability (Axitinib + Palbociclib; first compound 0.05 µM): 0.603
relative viability (Axitinib + Palbociclib; first compound 0.1581 µM): 0.583
relative viability (Axitinib + Palbociclib; first compound 0.5 µM): 0.657
relative viability (Bemcentinib + Linsitinib; first compound 0.04 µM): 0.955
relative viability (Bemcentinib + Linsitinib; first compound 0.1265 µM): 1.06
relative viability (Bemcentinib + Linsitinib; first compound 0.4 µM): 0.972
relative viability (Bemcentinib + Linsitinib; first compound 1.265 µM): 0.991
relative viability (Bemcentinib + Linsitinib; first compound 4 µM): 0.995

SK-LU-1
relative viability (Axitinib + Vorinostat; first compound 0.005 µM): 0.805
relative viability (Axitinib + Vorinostat; first compound 0.01581 µM): 0.835
relative viability (Axitinib + Vorinostat; first compound 0.05 µM): 0.808
relative viability (Axitinib + Vorinostat; first compound 0.1581 µM): 0.817
relative viability (Axitinib + Vorinostat; first compound 0.5 µM): 0.959
relative viability (Axitinib + Linsitinib; first compound 0.005 µM): 1.25
relative viability (Axitinib + Linsitinib; first compound 0.01581 µM): 1.28
relative viability (Axitinib + Linsitinib; first compound 0.05 µM): 1.18
relative viability (Axitinib + Linsitinib; first compound 0.1581 µM): 1.17
relative viability (Axitinib + Linsitinib; first compound 0.5 µM): 1.36
relative viability (Axitinib + Palbociclib; first compound 0.005 µM): 0.433
relative viability (Axitinib + Palbociclib; first compound 0.01581 µM): 0.406
relative viability (Axitinib + Palbociclib; first compound 0.05 µM): 0.38
relative viability (Axitinib + Palbociclib; first compound 0.1581 µM): 0.368
relative viability (Axitinib + Palbociclib; first compound 0.5 µM): 0.355
relative viability (Bemcentinib + Linsitinib; first compound 0.04 µM): 1.15
relative viability (Bemcentinib + Linsitinib; first compound 0.1265 µM): 1.42
relative viability (Bemcentinib + Linsitinib; first compound 0.4 µM): 1.28
relative viability (Bemcentinib + Linsitinib; first compound 1.265 µM): 1.02
relative viability (Bemcentinib + Linsitinib; first compound 4 µM): 1.13
